Measurements published in PubChem BioAssay AID1918994 (Molecular Pharmacology Branch, DTP, NCI, 2023).

Test system: 292921-168-R-J2-PDC complex spheroid growth
Experiment: Anticancer human tumor 292921-168-R-J2-PDC patient-derived pancreatic carcinoma cell line growth inhibition [AhR]
Conditions: for IC50: curve of first compound; for viability, T/C: stronger effect = lower value; active = viability on the fitted dose curve at most 10% of control; inactive = the rest
How it was run: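 Complex tumor spheroids co-cultured with HUVEC and human MSC stroma; AhR antagonists tested in combination with standard-of-care and investigational agents. Top concentration at or near clinical Cmax (else 10 microM), half-log dilutions; growth expressed as percent test/control.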

[1] = second compound 0.1 µM, first compound 0.000949 µM
[2] = second compound 0.1 µM, first compound 0.003 µM
[3] = second compound 0.1 µM, first compound 0.00949 µM
[4] = second compound 0.1 µM, first compound 0.03 µM
[5] = second compound 0.1 µM, first compound 0.0949 µM
[6] = second compound 0.1 µM, first compound 0.3 µM
[7] = second compound 0.316 µM, first compound 0.000949 µM
[8] = second compound 0.316 µM, first compound 0.003 µM
[9] = second compound 0.316 µM, first compound 0.00949 µM
[10] = second compound 0.316 µM, first compound 0.03 µM
[11] = second compound 0.316 µM, first compound 0.0949 µM
[12] = second compound 0.316 µM, first compound 0.3 µM
[13] = second compound 1 µM, first compound 0.000949 µM
[14] = second compound 1 µM, first compound 0.003 µM
[15] = second compound 1 µM, first compound 0.00949 µM
[16] = second compound 1 µM, first compound 0.03 µM
[17] = second compound 1 µM, first compound 0.0949 µM
[18] = second compound 1 µM, first compound 0.3 µM
[19] = second compound 3.16 µM, first compound 0.000949 µM
[20] = second compound 3.16 µM, first compound 0.003 µM
[21] = second compound 3.16 µM, first compound 0.00949 µM
[22] = second compound 3.16 µM, first compound 0.03 µM
[23] = second compound 3.16 µM, first compound 0.0949 µM
[24] = second compound 3.16 µM, first compound 0.3 µM
[25] = second compound 10 µM, first compound 0.000949 µM
[26] = second compound 10 µM, first compound 0.003 µM
[27] = second compound 10 µM, first compound 0.00949 µM
[28] = second compound 10 µM, first compound 0.03 µM
[29] = second compound 10 µM, first compound 0.0949 µM
[30] = second compound 10 µM, first compound 0.3 µM
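Note: spheroids exposed to compounds for seven days after three days of growth.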

CC(C)CC(NC(=O)C(Cc1ccccc1)NC(=O)c1cnccn1)B(O)O (stereo not given) + Cc1cncc(-c2nc(NCCc3c[nH]c4ccccc34)c3ncn(C(C)C)c3n2)c1
inactive: viability, T/C [1] 92.8% | viability, T/C [2] 109% | viability, T/C [3] 51.3% | viability, T/C [7] 89.7% | viability, T/C [8] 99.3% | viability, T/C [9] 51.5% | viability, T/C [13] 82.3% | viability, T/C [14] 95.5% | viability, T/C [15] 48.7% | viability, T/C [19] 62.3% | viability, T/C [20] 77% | viability, T/C [21] 41.6% | viability, T/C [25] 43.5% | viability, T/C [26] 53.7% | viability, T/C [27] 19.6%
active: viability, T/C [4] 3.12% | viability, T/C [5] 0.7% | viability, T/C [6] 0.59% | viability, T/C [10] 3.84% | viability, T/C [11] 0.68% | viability, T/C [12] 0.47% | viability, T/C [16] 3.35% | viability, T/C [17] 0.56% | viability, T/C [18] 0.95% | viability, T/C [22] 1.9% | viability, T/C [23] 0.89% | viability, T/C [24] 1.05% | viability, T/C [28] 0.58% | viability, T/C [29] 0.63% | viability, T/C [30] 0.51%
< 0.949 nM: IC50 (second compound 10 µM)
9.81 nM: IC50 (second compound 0.316 µM)
9.77 nM: IC50 (second compound 0.1 µM)
9.14 nM: IC50 (second compound 1 µM)
6.72 nM: IC50 (second compound 3.16 µM)

CCc1c2c(nc3ccc(O)cc13)-c1cc3c(c(=O)n1C2)COC(=O)[C@]3(O)CC + Cc1cncc(-c2nc(NCCc3c[nH]c4ccccc34)c3ncn(C(C)C)c3n2)c1
2.89 nM: IC50 (second compound 0.316 µM)
active: viability, T/C [4] 11.1% | viability, T/C [5] 5.94% | viability, T/C [6] 3.28% | viability, T/C [10] 11.7% | viability, T/C [11] 5.74% | viability, T/C [12] 3.22% | viability, T/C [17] 6.94% | viability, T/C [18] 4.02% | viability, T/C [23] 6.69% | viability, T/C [24] 3.97% | viability, T/C [29] 9.49% | viability, T/C [30] 6.16%
< 0.949 nM: IC50 (second compound 3.16 µM) | IC50 (second compound 10 µM)
2.91 nM: IC50 (second compound 0.1 µM)
inactive: viability, T/C [1] 62.5% | viability, T/C [2] 50.5% | viability, T/C [3] 22.7% | viability, T/C [7] 64.3% | viability, T/C [8] 50.4% | viability, T/C [9] 23.2% | viability, T/C [13] 57.6% | viability, T/C [14] 45.8% | viability, T/C [15] 22.5% | viability, T/C [16] 11.6% | viability, T/C [19] 44.6% | viability, T/C [20] 35.2% | viability, T/C [21] 19.6% | viability, T/C [22] 11.1% | viability, T/C [25] 36.7% | viability, T/C [26] 28.9% | viability, T/C [27] 21.7% | viability, T/C [28] 14.2%
1.92 nM: IC50 (second compound 1 µM)

COc1cc(Nc2ncc3c(n2)-c2ccc(Cl)cc2C(c2c(F)cccc2OC)=NC3)ccc1C(=O)O + Cc1cncc(-c2nc(NCCc3c[nH]c4ccccc34)c3ncn(C(C)C)c3n2)c1
inactive: viability, T/C (second compound 0.1 µM, first compound 0.0316 µM) 50.6% | viability, T/C (second compound 0.1 µM, first compound 0.1 µM) 45% | viability, T/C (second compound 0.1 µM, first compound 0.316 µM) 50% | viability, T/C (second compound 0.1 µM, first compound 1 µM) 45.6% | viability, T/C (second compound 0.1 µM, first compound 3.16 µM) 46.1% | viability, T/C (second compound 0.1 µM, first compound 10 µM) 33.5% | viability, T/C (second compound 0.316 µM, first compound 0.0316 µM) 49.9% | viability, T/C (second compound 0.316 µM, first compound 0.1 µM) 43.3% | viability, T/C (second compound 0.316 µM, first compound 0.316 µM) 52% | viability, T/C (second compound 0.316 µM, first compound 1 µM) 45.9% | viability, T/C (second compound 0.316 µM, first compound 3.16 µM) 46.5% | viability, T/C (second compound 0.316 µM, first compound 10 µM) 33.2% | viability, T/C (second compound 1 µM, first compound 0.0316 µM) 46.7% | viability, T/C (second compound 1 µM, first compound 0.1 µM) 40.3% | viability, T/C (second compound 1 µM, first compound 0.316 µM) 47.8% | viability, T/C (second compound 1 µM, first compound 1 µM) 44.3% | viability, T/C (second compound 1 µM, first compound 3.16 µM) 41.9% | viability, T/C (second compound 1 µM, first compound 10 µM) 30.4% | viability, T/C (second compound 3.16 µM, first compound 0.0316 µM) 44.6% | viability, T/C (second compound 3.16 µM, first compound 0.1 µM) 38.7% | viability, T/C (second compound 3.16 µM, first compound 0.316 µM) 42.4% | viability, T/C (second compound 3.16 µM, first compound 1 µM) 39.3% | viability, T/C (second compound 3.16 µM, first compound 3.16 µM) 35.5% | viability, T/C (second compound 3.16 µM, first compound 10 µM) 28% | viability, T/C (second compound 10 µM, first compound 0.0316 µM) 40.4% | viability, T/C (second compound 10 µM, first compound 0.1 µM) 35% | viability, T/C (second compound 10 µM, first compound 0.316 µM) 38.5% | viability, T/C (second compound 10 µM, first compound 1 µM) 35.4% | viability, T/C (second compound 10 µM, first compound 3.16 µM) 32.4% | viability, T/C (second compound 10 µM, first compound 10 µM) 26.3%
< 31.6 nM: IC50 (second compound 0.1 µM) | IC50 (second compound 0.316 µM) | IC50 (second compound 1 µM) | IC50 (second compound 3.16 µM) | IC50 (second compound 10 µM)
